Measurements reported in the SangsterLogP compilation.

assay: method code SF, from PMID: 3778562

| SMILES | logP |
| --- | --- |
| CC(=O)Oc1ccccc1C(=O)OC1Cc2c(O)cc(O)cc2OC1c1ccc(O)c(O)c1 (configuration not stated) | 2.87 |
| O=c1cc(-c2ccccc2)oc2cc(O)cc(O)c12 | 3.52 |
| Cc1cc(C)c2c(c1)O[C@H](c1ccc(C)c(C)c1)[C@@H](O)C2 | 3.1 |
| Oc1cc(O)c2c(c1)O[C@@H](c1ccc(O)c(O)c1)C(OCO[C@@H]1Cc3c(O)cc(O)cc3O[C@H]1c1ccc(O)c(O)c1)C2 (some centres not stated) | 2.15 |
| O=C1CC(c2ccc(O)cc2)Oc2cc(O)cc(O)c21 (stereo in doubt) | 2.52 |
| CCCCCCCCCCCCO[C@H]1Cc2c(O)cc(O)cc2O[C@@H]1c1ccc(O)c(O)c1 | 6.79 |
| COc1ccc(-c2cc(=O)c3c(O)cc(O[C@@H]4O[C@H](CO[C@@H]5O[C@@H](C)[C@H](O)[C@@H](O)[C@H]5O)[C@@H](O)[C@H](O)[C@H]4O)cc3o2)cc1O | 0.14 |
| CCCCCCCCCCCCCCCC(=O)O[C@H]1Cc2c(O)cc(O)cc2O[C@@H]1c1ccc(O)c(O)c1 | 8.7 |
| COc1ccc([C@@H]2CC(=O)c3c(O)cc(O)cc3O2)cc1O | 2.6 |
| O=c1c(O)c(-c2ccc(O)c(O)c2)oc2cc(O)ccc12 | 2.53 |
| O=C(O[C@H]1Cc2c(O)cc(O)cc2O[C@@H]1c1ccc(O)c(O)c1)c1ccccc1 | 3.44 |
| C[C@@H]1O[C@@H](O[C@H]2[C@H](Oc3cc(O)c4c(c3)O[C@H](c3ccc(O)cc3)CC4=O)O[C@H](CO)[C@@H](O)[C@@H]2O)[C@H](O)[C@H](O)[C@H]1O | -0.44 |
| O=c1cc(-c2ccc(O)cc2)oc2cc(O)cc(O)c12 | 3.02 |
| CCCC(=O)O[C@H]1Cc2c(O)cc(O)cc2O[C@@H]1c1ccc(O)c(O)c1 | 2.47 |
| COc1cc(OC)c2c(c1)O[C@H](c1ccc(OC)c(OC)c1)[C@@H](O)C2 | 3.1 |
| O=c1cc(-c2ccc(O)c(O)c2)oc2cc(O)ccc12 | 1.94 |
| CCCCO[C@H]1Cc2c(O)cc(O)cc2O[C@@H]1c1ccc(O)c(O)c1 | 2.64 |
| O=c1cc(-c2ccc(O)c(O)c2)oc2cccc(O)c12 | 3.31 |
| O=c1c(O)c(-c2ccc(O)cc2O)oc2cc(O)cc(O)c12 | 2.61 |
| N#CCCO[C@H]1Cc2c(O)cc(O)cc2O[C@@H]1c1ccc(O)c(O)c1 | 0.96 |
| COc1ccc(-c2oc3ccccc3c(=O)c2O)cc1OC | 4.17 |
| COc1ccc(-c2cc(=O)c3c(O)cc(O)cc3o2)cc1O | 3.1 |
| O=C(Nc1ccccc1)OC1Cc2c(O)cc(O)cc2OC1c1ccc(O)c(O)c1 (configuration not stated) | 3.05 |
| O=C(O[C@H]1Cc2c(O)cc(O)cc2O[C@@H]1c1ccc(O)c(O)c1)c1ccc(F)cc1 | 3.64 |

| SMILES | logP |
| --- | --- |
| CCCCCCCCCCCCCCCCO[C@H]1Cc2c(O)cc(O)cc2O[C@@H]1c1ccc(O)c(O)c1 | 8.87 |
| Oc1cc(O)c2c(c1)OC(c1ccc(O)c(O)c1)C(O)C2O (configuration not stated) | 0.95 |
| O=C1C[C@@H](c2cccc(O)c2)Oc2cc(O)cc(O)c21 | 2.51 |
| O=c1c(O)c(-c2cccc(O)c2)oc2cc(O)ccc12 | 2.51 |
| O=C(Cc1ccccc1)O[C@H]1Cc2c(O)cc(O)cc2O[C@@H]1c1ccc(O)c(O)c1 | 3.09 |
| O=C1C[C@@H](c2ccc(O)c(O)c2)Oc2cccc(O)c21 | 2.81 |
| COc1ccc(-c2oc3cc(O)cc(O)c3c(=O)c2O)cc1 | 3.97 |
| CO[C@H]1Cc2c(O)cc(O)cc2O[C@@H]1c1ccc(O)c(O)c1 | 1 |
| O=C(OC1Cc2c(O)cc(O)cc2OC1c1ccc(O)c(O)c1)c1ccc(O)c(O)c1 (configuration not stated) | 2.45 |
| CCCCCCCCCC(=O)O[C@H]1Cc2c(O)cc(O)cc2O[C@@H]1c1ccc(O)c(O)c1 | 5.58 |
| O=C1C[C@@H](c2ccc(O)cc2)Oc2cc(O[C@H]3O[C@@H](CO)[C@H](O)[C@@H](O)[C@@H]3O)cc(O)c21 | -0.44 |
| CCCCCCCO[C@H]1Cc2c(O)cc(O)cc2O[C@@H]1c1ccc(O)c(O)c1 | 4.2 |
| NCCCOC1Cc2c(O)cc(O)cc2OC1c1ccc(O)c(O)c1 (configuration not stated) | 0.52 |
| O=c1c(O)c(-c2ccc(O)cc2)oc2cc(O)ccc12 | 3.02 |
| CCCO[C@H]1Cc2c(O)cc(O)cc2O[C@@H]1c1ccc(O)c(O)c1 | 2.12 |
| O=C1C[C@@H](c2ccc(O)c(O)c2)Oc2cc(O)cc(O)c21 | 2.02 |
| CCCCCCCCCCCCCCCCCCO[C@H]1Cc2c(O)cc(O)cc2O[C@@H]1c1ccc(O)c(O)c1 | 9.91 |
| O=C1C[C@@H](c2ccc(O)c(O)c2)Oc2cc(O)ccc21 | 1.94 |
| O=c1c(O)c(-c2ccc(O)cc2)oc2cc(O)cc(O)c12 | 3.39 |
| COc1cc(OC)c2c(c1)OC(c1ccc(OC)c(OC)c1)C(OC)C2 (configuration not stated) | 3.68 |
| Oc1cc(O)c2c(c1)OC(c1ccc(O)c(O)c1)C(OCCCc1ccccc1)C2 (configuration not stated) | 3.78 |
| C[C@@H]1O[C@@H](Oc2c(-c3ccc(O)c(O)c3)oc3cc(O)cc(O)c3c2=O)[C@H](O)[C@H](O)[C@H]1O | 1.78 |
| O=C(O)CCC(=O)O[C@H]1Cc2c(O)cc(O)cc2O[C@@H]1c1ccc(O)c(O)c1 | 1.41 |
